Assays:
Assay type in all cases: cell-based
[1] = test system: production of PGD2 (cyclooxygenase pathway) by RBL-1 cells; assay: Inhibition of the cyclooxygenase pathway (PGD2 formation) in RBL-1 cells; settings: Rattus norvegicus, 5 min, [14C]-arachidonic acid plus calcium ionophore, N in brackets, read-out: RBL-cells PGD2 formation IC50 ± SD (N)
Procedure: METHOD FOR ASSESSING THE INHIBITION OF THE CYCLOOXYGENASE PATHWAY IN (RBL) CELLS
a) RBL-1 cell incubations. […] A 0.5 ml allquot of cell suspension was preincubated at 30° C. for 10 minutes with 1 μl dimethyl sulfoxide (DMSO) solution of drug. […] Five minutes later, the incubation was terminated by the addition of a 0.27 ml volume of acetonitrile (ACN)/acetic acid (HOAc) (100:3). The mixture was then clarified of precipitated protein by centrifugation. Analysis of 5-LO/COX pathway products was performed by radioactivity monitoring after separation by high performance liquid chromatography (HPLC). […] The area under the curve (AUC) as measured in integration units for each product was compared to the average AUC value for untreated (no drug) controls. […] Half-maximal (IC50) points were estimated from these curves.

[2] = test system: IL-1β release by human monocytes; assay: ATP kick, slightly different assay that employed metabolically labeled cells; settings: Monocyte, read-out: Human Monocyte AtP kick IC50 (No. Trials), starred values
Excerpt: *Values for tenidap (the first compound in the table), and in one case
ilonidap (the second compound in the table) were derived from a slightly
different assay that employed metabolically labeled cells.

[3] = test system: IL-1β release by human monocytes; assay: ATP-induced IL-1β posttranslational processing (ATP kick), ELISA; settings: Monocyte, LPS-stimulated human monocytes, IL-1β ELISA, read-out: Human Monocyte AtP kick % Inh.
Procedure: PROTOCOL FOR ATP-INDUCED IL-Iβ POSTTRANSLATIONAL PROCESSING
Cells: Human monocytes were isolated by Ficoll-Hypaque centrifugation of heparinized blood. The monocyte band off the gradient was collected, diluted with RPMI 1640, 5% fetal bovine serum (FBS), 20 mM N-[2[hydroxyethyl]piperazine-N-[2-ethanesulfonic acid] (Hepes), pH 7.3 (40 ml) and the cells were collected by centrifugation. The cell pellet was washed twice with 30 ml of RPMI 1640, 5% FBS, 20 mM Hepes (Maintenance Medium). The monocytes were resuspended in 50 ml of the Maintenance Medium. Into each well of a 96 well plate was added […] mononuclear cells. The cell suspension was diluted to a final concentration of 1.5×10^5 mononuclear cells. (To accomplish this, the cell suspension was diluted to a final concentration of 1.5×10^6 cell/ml and 0.2 ml was added to each well of the plate.) After incubating at 37° C. for 2 hours, the supernatant containing non-adherent cells was removed by aspiration. The adherent cells were washed once with 0.15 ml of Maintenance medium. Then, 0.15 ml of fresh Maintenance Medium was added and the cells were incubated overnight at 37° C.
Stimulation: Lipopolysaccharide (LPS) was added to a final concentration of 10 ng/ml and incubated at 37° C. for 2 hours. […]

| IC50 [1] [µM] | SMILES | IC50 [2] [µM] | inhibition at 19 µM [3] [%] |
| --- | --- | --- | --- |
| 37 | NC(=O)N1C(=O)C(C(=O)C(F)(F)F)c2cc(Cl)ccc21 (centres unmarked) [Cl H Trifluoromethyl] | – | – |
| 99 | Cc1ccc2c(c1)C(C(=O)c1cccs1)C(=O)N2C(N)=O (centres unmarked) [CH3 H 2'-thienyl] | – | 32 |
| 3.2 | NC(=O)N1C(=O)C(C(=O)c2ccoc2)c2cc(Cl)ccc21 (centres unmarked) [Cl H 3'-furyl] | – | – |
| 0.7 | NC(=O)N1C(=O)C(C(=O)c2ccsc2)c2cc(Cl)ccc21 (centres unmarked) [Cl H 3'-thienyl] | – | 14 |

| SMILES | IC50 [1] [µM] | IC50 [2] [µM] | inhibition at 19 µM [3] [%] |
| --- | --- | --- | --- |
| NC(=O)N1C(=O)C(C(=O)c2cccs2)c2cc(Cl)ccc21 (centres unmarked) [tenidap, 5-chloro-2,3-dihydro-2-oxo-3-(2-thienylcarbonyl)-indole-1-carboxamide] | 0.02 ± 0.02 | 40 | – |

Reference: patent publication US5545656A, “2-Oxidole-1-carboxamide pharmaceutical agents for the treatment of alzheimer's disease” (Pfizer Inc., priority 1995, dated 1996)
